The text below walks through data of PMC4917206, “Chemical Modification of Influenza CD8+ T-Cell Epitopes Enhances Their Immunogenicity Regardless of Immunodominance” (PLoS ONE, 2016).

One experiment addresses T1, HLA-A*0201 (Homo sapiens, UniProt P04439, D140Y/D185E/D98H/E176V/E277Q/G131W/G231S/I119V/I121R/I166T/I218V/L300P/L318F/N151K/N90K/P208A/P217A/Q86G/Q94H/R138H/R169H/T345S).
T1 construct: Soluble MHC was dissolved in PBS containing 0.5 mg/ml bovine γ-globulin; made in house
It counts as binding.

Experiment [1] has as its system CD8+ T cells of HLA-A2+ human donors. The experiment is classed as cell-based.
Experiment [2] deals with splenocytes of WT-vaccinated HLA-A2 tg mice. It counts as cell-based, mouse. More on the design: key to response compared with WT peptide control, mouse splenocytes: *: Lower response than WT peptide.

FMYSDFHF[CSET] [F54]: at HLA-A*0201, the “FP binding score, percentage inhibition of tracer peptide binding, 4h” value is 82% and the “FP binding score, percentage inhibition of tracer peptide binding, 24h” value (from here on “FP binding score, percentage inhibition … 24h”) was found to be 80%. In addition, in experiment [1], the “DC model: IFN-γ-positive CD8+ T cells, Average” value (“DC model … Average” below) was found to be 0.14 and the “rank by T cell activation, DC model” value is on record as “Upper 3”. Further, the “Mouse splenocytes (ex vivo assay), Average” value (from here on “Mouse splenocytes … Average”) in experiment [2] turned out to be 78.

In the case of FMYSDFHF[CpALA] [F52], at HLA-A*0201, the “FP binding score, percentage inhibition of tracer peptide binding, 4h” value is 81% and the “FP binding score, percentage inhibition … 24h” value stood at 78%. Also, the “DC model … Average” value in experiment [1] is reported as 0.13. The “Mouse splenocytes … Average” value in experiment [2] is listed as 79.

Regarding FMYSDFHF[HPG] [F63], on HLA-A*0201, the “FP binding score, percentage inhibition of tracer peptide binding, 4h” value was 81% and the “FP binding score, percentage inhibition … 24h” value is recorded as 78%. The “DC model … Average” value in experiment [1] worked out at 0.08. Further, the “Mouse splenocytes … Average” value in experiment [2] stood at 83.

F[2-AOC]LSTVLGV [N177]: at HLA-A*0201, the “FP binding score, percentage inhibition of tracer peptide binding, 4h” value is given as 90% and the “FP binding score, percentage inhibition … 24h” value was determined as 88%. In addition, the “DC model … Average” value in experiment [1] is on record as 0.04. In experiment [2], the “Mouse splenocytes … Average” value came out at 46.

In the case of F[2-AOC]YSDFHF[CHA] [F48], on HLA-A*0201, the “FP binding score, percentage inhibition of tracer peptide binding, 4h” value came out at 93% and the “FP binding score, percentage inhibition … 24h” value amounted to 92%. The “DC model … Average” value in experiment [1] is reported as 0.11. In addition, the “Mouse splenocytes … Average” value in experiment [2] is 61.

Turning to F[2-AOC]YSDFHF[NLE] [F69], on HLA-A*0201, the “FP binding score, percentage inhibition of tracer peptide binding, 4h” value is recorded as 90% and the “FP binding score, percentage inhibition … 24h” value is recorded as 89%. In experiment [1], the “DC model … Average” value was determined as 0.08 and the “rank by T cell activation, DC model” value is “Lower 3”. Also, in experiment [2], the “Mouse splenocytes … Average” value was found to be 63.

As to GILGFV[BUTGLY]TL [G20], on HLA-A*0201, the “FP binding score, percentage inhibition of tracer peptide binding, 4h” value is reported as 82% and the “FP binding score, percentage inhibition … 24h” value is recorded as 79%. Further, in experiment [1], the “DC model … Average” value stood at 0.07 and the “rank by T cell activation, DC model” value was “Lower 3”. Moreover, in experiment [2], the “Mouse splenocytes … Average” value is reported as 36.

On to NM[2-AOC]STVLGV [N41], for which, at HLA-A*0201, the “FP binding score, percentage inhibition of tracer peptide binding, 4h” value was 78% and the “FP binding score, percentage inhibition … 24h” value was found to be 73%. Besides, in experiment [1], the “DC model … Average” value is given as 0.08 and the “rank by T cell activation, DC model” value is reported as “Upper 3”. Besides, the “Mouse splenocytes … Average” value in experiment [2] was determined as 5.

For the substance N[2-AOC]LSTVLGV [N40], on HLA-A*0201, the “FP binding score, percentage inhibition of tracer peptide binding, 4h” value came out at 71% and the “FP binding score, percentage inhibition … 24h” value is given as 67%. Besides, in experiment [1], the “DC model … Average” value is listed as 0.06. Moreover, in experiment [2], the “Mouse splenocytes … Average” value turned out to be 375; the “rank by T cell activation, mouse splenocytes” value (from here on “rank … mouse splenocytes”) is listed as “Upper 3”; the “response compared with WT peptide control, mouse splenocytes” value is “N40 ^*”.

As for [2-AOC]MLSTVLGV [N39], on HLA-A*0201, the “FP binding score, percentage inhibition of tracer peptide binding, 4h” value worked out at 68% and the “FP binding score, percentage inhibition … 24h” value worked out at 63%. Also, the “DC model … Average” value in experiment [1] was 0.05. The “Mouse splenocytes … Average” value in experiment [2] is given as 334.

For [2-AOC]MYSDFHFI [F95], on HLA-A*0201, the “FP binding score, percentage inhibition of tracer peptide binding, 4h” value was determined as 82% and the “FP binding score, percentage inhibition … 24h” value amounted to 80%. The “DC model … Average” value in experiment [1] came out at 0.12. Besides, the “Mouse splenocytes … Average” value in experiment [2] is 90.

With [3-PYRA]ILGFVFT[2-AOC] [G29], on HLA-A*0201, the “FP binding score, percentage inhibition of tracer peptide binding, 4h” value worked out at 44% and the “FP binding score, percentage inhibition … 24h” value amounted to 38%. Further, the “DC model … Average” value in experiment [1] worked out at 0.12. Moreover, in experiment [2], the “Mouse splenocytes … Average” value is recorded as 39.

As for [3-PYRA]MLSTVLGV [N43], at HLA-A*0201, the “FP binding score, percentage inhibition of tracer peptide binding, 4h” value is given as 47% and the “FP binding score, percentage inhibition … 24h” value amounted to 41%. Further, in experiment [1], the “DC model … Average” value was found to be 0.06. Moreover, the “Mouse splenocytes … Average” value in experiment [2] is recorded as 108.

On to [3-PYRA]MLSTVLG[2-AOC] [N8], for which, on HLA-A*0201, the “FP binding score, percentage inhibition of tracer peptide binding, 4h” value is listed as 85% and the “FP binding score, percentage inhibition … 24h” value worked out at 82%. Besides, in experiment [1], the “DC model … Average” value was determined as 0.01 and the “rank by T cell activation, DC model” value is “Lower 3”. In addition, in experiment [2], the “Mouse splenocytes … Average” value is on record as 1 and the “rank … mouse splenocytes” value is “Lower 3”.

Regarding [3-THI]MLSTVLG[2-AOC] [N98], at HLA-A*0201, the “FP binding score, percentage inhibition of tracer peptide binding, 4h” value is given as 83% and the “FP binding score, percentage inhibition … 24h” value is recorded as 79%. Also, the “DC model … Average” value in experiment [1] amounted to 0.04. The “Mouse splenocytes … Average” value in experiment [2] was found to be 93.

For [3-THI][2-AOC]YSDFHFI [F102], at HLA-A*0201, the “FP binding score, percentage inhibition of tracer peptide binding, 4h” value was found to be 92% and the “FP binding score, percentage inhibition … 24h” value stood at 91%. In experiment [1], the “DC model … Average” value amounted to 0.06 and the “rank by T cell activation, DC model” value is reported as “Lower 3”. In experiment [2], the “Mouse splenocytes … Average” value amounted to 96; the “rank … mouse splenocytes” value was “Upper 3”; the “response compared with WT peptide control, mouse splenocytes” value is reported as “F102 ^*”.

In the case of [4-FPHE]MYSDFHFI [F105], at HLA-A*0201, the “FP binding score, percentage inhibition of tracer peptide binding, 4h” value worked out at 86% and the “FP binding score, percentage inhibition … 24h” value was determined as 78%. The “DC model … Average” value in experiment [1] stood at 0.08. In addition, the “Mouse splenocytes … Average” value in experiment [2] worked out at 62.

As for [4-FPHE][2-AOC]LSTVLGV [N95], at HLA-A*0201, the “FP binding score, percentage inhibition of tracer peptide binding, 4h” value was 92% and the “FP binding score, percentage inhibition … 24h” value is reported as 90%. The “DC model … Average” value in experiment [1] is reported as 0.07. The “Mouse splenocytes … Average” value in experiment [2] stood at 3.

For the substance [CSME][2-AOC]LSTVLGV [N169], at HLA-A*0201, the “FP binding score, percentage inhibition of tracer peptide binding, 4h” value was 89% and the “FP binding score, percentage inhibition … 24h” value came to 87%. Besides, in experiment [1], the “DC model … Average” value stood at 0.09 and the “rank by T cell activation, DC model” value is “Upper 3”. Further, in experiment [2], the “Mouse splenocytes … Average” value is listed as 366.

As for [NLE]MLSTVLGV [N52], at HLA-A*0201, the “FP binding score, percentage inhibition of tracer peptide binding, 4h” value is recorded as 54% and the “FP binding score, percentage inhibition … 24h” value is 46%. For the same substance, in experiment [1], the “DC model … Average” value stood at 0.03. Also, in experiment [2], the “Mouse splenocytes … Average” value was 341.

Consider [NVA]MLSTVLG[2-AOC] [N15], for which, on HLA-A*0201, the “FP binding score, percentage inhibition of tracer peptide binding, 4h” value amounted to 71% and the “FP binding score, percentage inhibition … 24h” value came to 65%. Also, the “DC model … Average” value in experiment [1] is given as 0.07. Moreover, in experiment [2], the “Mouse splenocytes … Average” value is 3 and the “rank … mouse splenocytes” value is “Lower 3”.

As for [THR-BZL]MLSTVLGV [N176], at HLA-A*0201, the “FP binding score, percentage inhibition of tracer peptide binding, 4h” value amounted to 73% and the “FP binding score, percentage inhibition … 24h” value worked out at 70%. Also, the “DC model … Average” value in experiment [1] was found to be 0.03. Besides, the “Mouse splenocytes … Average” value in experiment [2] came out at 355.

Consider [THR-BZL]MYSDFHFI [F142], for which, at HLA-A*0201, the “FP binding score, percentage inhibition of tracer peptide binding, 4h” value was 80% and the “FP binding score, percentage inhibition … 24h” value is on record as 77%. Besides, the “DC model … Average” value in experiment [1] is 0.08. In experiment [2], the “Mouse splenocytes … Average” value amounted to 79.
